Target: T1, CLOCK (Homo sapiens, UniProt O15516)
T1 sequence (O15516 1-846): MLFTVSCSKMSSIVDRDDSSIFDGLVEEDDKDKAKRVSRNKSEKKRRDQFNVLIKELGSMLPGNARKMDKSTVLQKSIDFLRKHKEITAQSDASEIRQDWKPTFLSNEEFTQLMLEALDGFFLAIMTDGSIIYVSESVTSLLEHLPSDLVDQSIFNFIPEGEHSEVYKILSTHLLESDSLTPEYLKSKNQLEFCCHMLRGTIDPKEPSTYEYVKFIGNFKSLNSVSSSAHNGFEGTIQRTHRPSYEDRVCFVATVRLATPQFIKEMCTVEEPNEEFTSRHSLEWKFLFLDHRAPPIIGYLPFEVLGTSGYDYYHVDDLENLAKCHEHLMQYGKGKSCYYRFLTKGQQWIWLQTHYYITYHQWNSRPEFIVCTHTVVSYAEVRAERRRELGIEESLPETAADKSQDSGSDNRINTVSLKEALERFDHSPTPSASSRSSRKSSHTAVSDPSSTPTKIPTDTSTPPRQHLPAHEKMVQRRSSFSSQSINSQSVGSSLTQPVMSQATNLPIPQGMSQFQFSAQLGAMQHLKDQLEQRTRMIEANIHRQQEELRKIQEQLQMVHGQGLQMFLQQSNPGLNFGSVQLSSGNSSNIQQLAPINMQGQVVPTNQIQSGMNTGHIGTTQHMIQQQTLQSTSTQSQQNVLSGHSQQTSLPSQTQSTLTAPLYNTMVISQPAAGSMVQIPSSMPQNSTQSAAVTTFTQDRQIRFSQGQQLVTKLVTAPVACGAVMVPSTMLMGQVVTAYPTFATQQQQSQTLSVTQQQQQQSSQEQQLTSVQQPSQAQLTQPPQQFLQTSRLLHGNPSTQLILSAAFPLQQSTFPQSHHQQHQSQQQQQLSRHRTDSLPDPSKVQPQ
Experiment: LC-MS/MS of pull-down precipitates, CLOCK
Type: binding
Set-up: expressed in transfected cells; host or cells: HEK293T
Procedure: HEK293T cells were transiently transfected with tag-free hsClock and mBmal1. After 48 hours of transfection, cells were harvested and whole cell lysate was prepared with ice-cold lysis buffer (50 mM Tris-HCl pH 7.4, 2 mM EDTA, 1 mM MgCl2, 0.2% NP-40, 1 mM sodium orthovanadate, 1 mM sodium fluoride and protease inhibitor cocktail) followed by centrifugation at 7000×g at 4° C. for 10 minutes. Lysate was diluted with ice-cold 2× binding buffer (100 mM Tris-HCl pH 7.4, 300 mM NaCl, 0.2% NP-40, 2 mM sodium orthovanadate, 2 mM sodium fluoride, and protease inhibitor cocktail) 27. The lysate was divided into three fractions to be treated with either DMSO, or 20 μM of bitoinylated-CLK8 (bait) with or without 200 μM CLK8 (competitor). […]
The next step was to check for off-targets of CLK8. […] Since the amount of precipitated endogenous CLOCK was insufficient to be detected in LC-MS/MS, whole cell lysate of HEK 293T cells overexpressing CLOCK and BMAL1 were used for LC-MS/MS. We determined proteins that potentially bind to CLK8 by utilizing a minimum threshold for peptide spectrum matches and coverage equal to those of the main target, CLOCK. We also excluded proteins that have been detected in negative controls of the CRAPome database (32), assuming them as abundant sticky proteins. […] BMAL1 was detected in lower amounts when a competitor was present. […]

SMILES: CC1(C)CCc2c(cc(OCC(=O)Nc3ccccc3C(N)=O)c3c(-c4ccccc4)cc(=O)oc23)O1 [CLK8, 2-[2-({12,12-dimethyl-4-oxo-6-phenyl-3,11-dioxatricyclo [8.4.0.0,2,7]tetradeca-1,5,7,9-tetraen-8-yl}oxy)acetamido] benzamide]
- Peptide spectrum matches, CLOCK (Competitor 0 μM): 42
- Peptide spectrum matches, CLOCK (Competitor 200 μM): not detected
